The source of these data is patent US6982148B2, “Progressive elevated gene-3 (PEG-3) induces aggressive cancer phenotype and regulates angiogenesis” (The Trustees of Columbia University in the City of New York, priority 1999, dated 2006).

One experiment relates to VEGF. Put plainly: VEGF transcription and steady-state mRNA in E11 cells after transient PEG-3 transfection. The following applies: added 4 hr after PEG-3 transfection of E11 cells. Type of experiment: cell-based, rat. On the procedure:
Transfection of PEG-3 into E11 cells induces steady-state VEGF mRNA. E11 cells were transfected with a pZeoSV/PEG-3 or pZeo SV vector, 4 hr later replicate cultures received cycloheximide and 30 hr later total RNA was extracted and analyzed by Northern blotting for PEG-3, VEGF, Ad5 ElA and GAPDH mRNA expression.
Nucleic Acid Analyses. Steady-state levels of PEG-3, VEGF, ElA, and GAPHD mRNA were determined by Northern analysis of total cytoplasmic RNA using appropriate multiprimed ^32P-labeled cloned cDNA probes as described previously (18,19). Briefly, 10 μg of total RNA from the different cell types were electrophoresed in a 1% agarose gel, transferred to a nylon membrane and hybridized with the different ^32p-labeled CDNA fragments. The membrane was stripped and hybridized with indicated probes sequentially. […]
To examine further the relationship between PEG-3 and VEGF, experiments were performed to determined if transient ectopic expression of PEG-3 in rodent and human tumor cells could elevate VEGF expression. E11 cells were transfected with a PEG-3 expression construct, nuclei were isolated and evaluated for elevated VEGF transcription and total cytoplasmic RNA was isolated and steady-state VEGF mRNA levels were determined by Northern blotting (FIG. 8 and data not shown). […]

A further experiment relates to PEG-3. Description: PEG-3 mRNA and transcription after DNA damage. Type of experiment: cell-based, rat. The settings on record: following DNA damage. The text has this:
The specific role of the gadd34/MyD116 gene in cellular physiology is not known. Like hamster gadd34 and its murine homologue MyD116, PEG-3 steady-state mRNA and RNA transcriptional levels are increased following DNA damage by methyl methanesulfonate (MMS) and gamma irradiation (γIR) (FIGS. 2 and 5 and data not shown). In contrast, nuclear run-on assays indicate that only the PEG-3 gene is transcriptionally active (transcribed) as a function of transformation progression (FIG. 5). This is apparent in CREF cells transformed by Ha-ras and in E11-NMT and various E11-NMT subclones either expressing or not expressing the progression phenotype (FIG. 5). The gadd34/MyD116 gene, as well as the gadd45, MyD118 and gadd153 genes, encode acidic proteins with very similar and unusual charge characteristics (24). PEG-3 also encodes a putative protein with acidic properties similar to the gadd and MyD genes (FIG. 3). The carboxyl-terminal domain of the murine MyD116 protein is homologous to the corresponding domain of the herpes simplex virus 1 γ134.5 protein, that prevents the premature shutoff of total protein synthesis in infected human cells (35,36). Replacement of the carboxyl-terminal domain of γ134.5 with the homologous region from MyD116 results in a restoration of function to the herpes viral genome, i.e., prevention of early host shutoff of protein synthesis (36). […]

Each structure is given as a SMILES string.

For `C[C@@H]1C[C@@H]([C@H](O)CC2CC(=O)NC(=O)C2)C(=O)[C@@H](C)C1` [cycloheximide], the “Effect on PEG-3 induced elevation of VEGF transcription and RNA” value in the experiment on VEGF is “prevented”.

Consider `COS(C)(=O)=O` [MMS, methyl methanesulfonate], for which the “PEG-3 steady-state mRNA and RNA transcriptional levels” value with PEG-3 is given as “increased”.
